Assay results: PubChem BioAssay (NCI)
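GI50 marks 50% less growth. TGI is the concentration that stops growth completely.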

Key:
Assay in all cases: inhibition of tumour cell growth, NCI panel, 384-well format
[1] = system: 786-0 renal
[2] = system: A498 renal
[3] = system: A549 NSCLC
[4] = system: ACHN renal
[5] = system: CAKI-1 renal
[6] = system: DU-145 prostate
[7] = system: EKVX NSCLC
[8] = system: HCC-2998 colon
[9] = system: HCT-15 colon
[10] = system: HOP-92 NSCLC
[11] = system: IGROV1 ovarian
[12] = system: KM12 colon
[13] = system: LOX IMVI melanoma
[14] = system: M14 melanoma
[15] = system: MALME-3M melanoma
[16] = system: MCF7 breast
[17] = system: NCI-H226 lung
[18] = system: NCI-H322M lung
[19] = system: NCI/ADR-RES ovarian
[20] = system: OVCAR-4 ovarian
[21] = system: OVCAR-5 ovarian
[22] = system: SF-268 CNS
[23] = system: SF-539 CNS
[24] = system: SK-OV-3 ovarian
[25] = system: SN12C renal
[26] = system: SNB-19 CNS
[27] = system: T-47D breast
[28] = system: TK-10 renal
[29] = system: UACC-257 melanoma
[30] = system: UO-31 renal
[31] = system: BT-549 breast
[32] = system: CCRF-CEM leukemia
[33] = system: COLO 205 colon
[34] = system: HCT-116 colon
[35] = system: HL-60(TB) leukemia
[36] = system: HOP-62 NSCLC
[37] = system: HS 578T breast
[38] = system: HT29 colon
[39] = system: K-562 leukemia
[40] = system: MDA-MB-231 breast
[41] = system: MDA-MB-435 melanoma
[42] = system: MDA-MB-468 breast
[43] = system: MOLT-4 leukemia
[44] = system: NCI-H23 lung
[45] = system: NCI-H460 NSCLC
[46] = system: NCI-H522 lung
[47] = system: OVCAR-3 ovarian
[48] = system: OVCAR-8 ovarian
[49] = system: PC-3 prostate
[50] = system: RPMI-8226 leukemia
[51] = system: RXF 393 renal
[52] = system: SF-295 CNS
[53] = system: SK-MEL-28 melanoma
[54] = system: SK-MEL-5 melanoma
[55] = system: SNB-75 CNS
[56] = system: SR leukemia
[57] = system: SW-620 colon
[58] = system: U251 glioblastoma
[59] = system: UACC-62 melanoma

`C/C(=C\c1csc(C)n1)[C@@H]1C[C@@H]2O[C@]2(C)CCC[C@H](C)[C@H](O)[C@@H](C)C(=O)C(C)(C)[C@@H](O)CC(=O)N1` was tested, and the TGI [1] was 0.0871 µM, the TGI [2] was greater than 100 µM and the TGI [3] was greater than 100 µM. It also gave a GI50 [4] of 0.0403 µM, a TGI [4] greater than 100 µM and a TGI [5] greater than 100 µM. For the same compound, the TGI [6] was 0.0107 µM, the GI50 [7] was 0.024 µM and the TGI [7] was greater than 100 µM. The TGI [8] was 0.0123 µM, the GI50 [9] was 0.0141 µM and the TGI [9] was 0.384 µM. For the same compound, the TGI [10] was greater than 100 µM, the GI50 [11] was 0.0276 µM and the TGI [11] was greater than 100 µM. It also gave a TGI [12] greater than 100 µM, a TGI [13] greater than 100 µM and a TGI [14] of 0.0103 µM. The TGI [15] was greater than 100 µM, the TGI [16] was greater than 100 µM and the TGI [17] was greater than 100 µM. The GI50 [18] was 0.0107 µM, the TGI [18] was greater than 100 µM and the GI50 [19] was 0.437 µM. For the same compound, the TGI [19] was 1.91 µM, the TGI [20] was greater than 100 µM and the TGI [21] was greater than 100 µM. It also gave a TGI [22] greater than 100 µM, a TGI [23] of 0.0135 µM and a TGI [24] greater than 100 µM. For the same compound, the TGI [25] was greater than 100 µM, the GI50 [26] was 0.0157 µM and the TGI [26] was greater than 100 µM. For the same compound, the TGI [27] was greater than 100 µM, the GI50 [28] was 0.0552 µM and the TGI [28] was greater than 100 µM. It also gave a TGI [29] greater than 100 µM, a GI50 [30] of 0.0605 µM and a TGI [30] greater than 100 µM.

`Nc1cc(C(F)(F)F)c(-c2nc(N3CCOCC3)nc(N3CCOCC3)n2)cn1` was tested, and the GI50 [1] was 1.32 µM, the TGI [1] was 12.1 µM and the GI50 [2] was 0.32 µM. For the same compound, the TGI [2] was 2.26 µM, the GI50 [3] was 0.902 µM and the TGI [3] was 9 µM. The GI50 [4] was 0.57 µM, the TGI [4] was 8.66 µM and the GI50 [31] was 0.678 µM. The TGI [31] was 4.42 µM, the GI50 [5] was 0.292 µM and the TGI [5] was 2.95 µM. For the same compound, the GI50 [32] was 1.34 µM, the TGI [32] was 10.9 µM and the GI50 [33] was 0.544 µM. It also gave a TGI [33] of 9.66 µM, a GI50 [6] of 0.847 µM and a TGI [6] of 21.3 µM. For the same compound, the GI50 [7] was 0.342 µM, the TGI [7] was 3.53 µM and the GI50 [8] was 1.1 µM. The TGI [8] was 48.9 µM, the GI50 [34] was 0.833 µM and the TGI [34] was 22.5 µM. The GI50 [9] was 0.497 µM, the TGI [9] was greater than 100 µM and the GI50 [35] was 0.17 µM. For the same compound, the TGI [35] was 3.43 µM, the GI50 [36] was 1.31 µM and the TGI [36] was 14.1 µM. It also gave a GI50 [10] of 0.274 µM, a TGI [10] of 2.12 µM and a GI50 [37] of 0.276 µM. It also gave a TGI [37] of 1.86 µM, a GI50 [38] of 0.554 µM and a TGI [38] of 14.8 µM. It also gave a GI50 [11] of 0.119 µM, a TGI [11] of 0.468 µM and a GI50 [39] of 2.78 µM. The TGI [39] was 40.5 µM, the GI50 [12] was 1.27 µM and the TGI [12] was 14.6 µM. For the same compound, the GI50 [13] was 1.57 µM, the TGI [13] was 9.36 µM and the GI50 [14] was 0.616 µM. It also gave a TGI [14] of 12.5 µM, a GI50 [15] of 0.174 µM and a TGI [15] of 1.03 µM. The GI50 [16] was 0.151 µM, the TGI [16] was 11.9 µM and the GI50 [40] was 0.834 µM. For the same compound, the TGI [40] was 38.7 µM, the GI50 [41] was 1.6 µM and the TGI [41] was 9.73 µM. It also gave a GI50 [42] of 0.353 µM, a TGI [42] of 2.2 µM and a GI50 [43] of 0.293 µM. It also gave a TGI [43] of 1.61 µM, a GI50 [17] of 0.563 µM and a TGI [17] of 4.35 µM. For the same compound, the GI50 [44] was 0.552 µM, the TGI [44] was 15.9 µM and the GI50 [18] was 0.534 µM. The TGI [18] was 11.5 µM, the GI50 [45] was 0.246 µM and the TGI [45] was 10.4 µM. For the same compound, the GI50 [46] was 0.36 µM, the TGI [46] was 10.2 µM and the GI50 [19] was 1.92 µM. For the same compound, the TGI [19] was 17.3 µM, the GI50 [47] was 0.354 µM and the TGI [47] was 3.92 µM. For the same compound, the GI50 [20] was 1.48 µM, the TGI [20] was 7.9 µM and the GI50 [48] was 1.12 µM. The TGI [48] was 93.6 µM, the GI50 [49] was 0.291 µM and the TGI [49] was 4.27 µM. The GI50 [50] was 0.221 µM, the TGI [50] was 1.27 µM and the GI50 [51] was 1.15 µM. The TGI [51] was 4.96 µM, the GI50 [22] was 1.46 µM and the TGI [22] was 18.2 µM. The GI50 [52] was 0.405 µM, the TGI [52] was 2.44 µM and the GI50 [23] was 1.15 µM. The TGI [23] was 13.7 µM, the GI50 [53] was 0.461 µM and the TGI [53] was 6.54 µM. The GI50 [54] was 0.503 µM, the TGI [54] was 2.81 µM and the GI50 [24] was 0.332 µM. It also gave a TGI [24] of 2.04 µM, a GI50 [25] of 0.195 µM and a TGI [25] of 2.3 µM. The GI50 [26] was 8.53 µM, the TGI [26] was 50.2 µM and the GI50 [55] was 0.288 µM. The TGI [55] was 2.92 µM, the TGI [56] was 0.255 µM and the GI50 [57] was 2.6 µM. For the same compound, the TGI [57] was greater than 100 µM, the GI50 [27] was 0.107 µM and the TGI [27] was 0.583 µM. For the same compound, the GI50 [28] was 0.432 µM, the TGI [28] was 3.87 µM and the GI50 [58] was 3.23 µM. The TGI [58] was 95.5 µM, the GI50 [29] was 1.7 µM and the TGI [29] was 20.8 µM. It also gave a GI50 [59] of 0.52 µM, a TGI [59] of 3.79 µM and a GI50 [30] of 0.426 µM. The TGI [30] was 19.2 µM.
